The experiment addresses T1, full-length beta-Catenin (Uniprot ID P35222) (Homo sapiens, UniProt P35222).
T1 construct: 10 nM full-length beta-Catenin (Uniprot ID P35222)
T1 sequence (P35222 1-781): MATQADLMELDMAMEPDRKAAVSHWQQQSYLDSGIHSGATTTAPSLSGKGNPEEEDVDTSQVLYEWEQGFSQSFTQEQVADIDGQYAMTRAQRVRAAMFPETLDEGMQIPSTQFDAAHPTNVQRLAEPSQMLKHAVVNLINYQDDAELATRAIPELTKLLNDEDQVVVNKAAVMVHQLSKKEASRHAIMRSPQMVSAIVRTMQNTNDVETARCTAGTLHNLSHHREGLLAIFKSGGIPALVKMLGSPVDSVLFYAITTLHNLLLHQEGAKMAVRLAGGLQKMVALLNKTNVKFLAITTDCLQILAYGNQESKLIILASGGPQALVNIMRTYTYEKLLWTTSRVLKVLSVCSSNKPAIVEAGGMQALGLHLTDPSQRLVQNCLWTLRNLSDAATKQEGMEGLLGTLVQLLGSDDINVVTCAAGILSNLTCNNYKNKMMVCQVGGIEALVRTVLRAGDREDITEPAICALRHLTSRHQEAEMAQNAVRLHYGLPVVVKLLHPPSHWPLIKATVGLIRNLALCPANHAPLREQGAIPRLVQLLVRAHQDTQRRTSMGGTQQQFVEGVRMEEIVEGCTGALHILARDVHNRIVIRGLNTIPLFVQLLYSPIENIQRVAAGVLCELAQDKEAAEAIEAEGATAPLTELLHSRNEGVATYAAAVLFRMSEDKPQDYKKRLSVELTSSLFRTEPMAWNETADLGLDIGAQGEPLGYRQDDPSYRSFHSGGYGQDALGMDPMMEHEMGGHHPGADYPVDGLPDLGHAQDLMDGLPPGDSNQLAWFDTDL
In words: Fluorescence polarization IC50 (beta-catenin / 5FAM-TCF4 10-53 competition). The experiment is classed as binding. The note with it: fluorescence polarization; read-out: beta-Catenin FP IC50. In general terms: In fluorescence polarisation assays a small probe gives low polarisation when free and higher when bound to something large.

For orientation: IC50 means the concentration that gives 50% inhibition. For `CC(=O)N1CCC[C@]12CC=CCCCC1(CCCC=CCCCOC(=O)N3CC[C@@](C(=O)N[C@@H](Cc4ccsc4)C(=O)N[C@@H](Cc4csc5ccccc45)C(=O)N[C@@H](CCC(N)=O)C(N)=O)(C3)NC(=O)[C@H](Cn3cc(CN4CCS(=O)(=O)CC4)nn3)NC(=O)[C@H](Cc3ccccc3)NC(=O)[C@H](C)NC(=O)[C@H](C)NC(=O)[C@H](CN(CC(=O)O)CC(F)(F)F)NC(=O)[C@H](CC(=O)O)NC1=O)NC(=O)[C@H](CC(C)(C)C)NC(=O)[C@H](CC(=O)O)NC2=O` (stereo partly drawn) [I-1869, Ac-PL3-Asp-Npg-B5-Asp-TfeGA-Ala-Ala-Phe-[SO2MorphCH2]TriAzDap-PyrS2-3Thi-BztA-Gln-NH2], the IC50 came to 0.012 µM. On to `CC(=O)N1CCC[C@]12CC=CCCCC1(CCCC=CCCCOC(=O)N3CC[C@@](C(=O)N[C@@H](Cc4ccsc4)C(=O)N[C@@H](Cc4cccc5ccccc45)C(=O)N[C@@H](CCC(N)=O)C(N)=O)(C3)NC(=O)[C@H](CC(N)=O)NC(=O)[C@H](Cc3ccccc3)NC(=O)[C@H](C)NC(=O)[C@H](C)NC(=O)[C@H]([C@@H](C)O)NC(=O)[C@H](CC(N)=O)NC1=O)NC(=O)[C@H](CC(C)(C)C)NC(=O)[C@H](CC(=O)O)NC2=O` (stereo partly drawn) [I-1870, Ac-PL3-Asp-Npg-B5-Asn-Thr-Ala-Ala-Phe-Asn-PyrS2-3Thi-1NapA-Gln-NH2], for which the IC50 was determined as 1.52 µM. On to `CC(=O)N1CCC[C@]12CC=CCCCC1(CCCC=CCCCOC(=O)N3CC[C@@](C(=O)N[C@@H](Cc4ccsc4)C(=O)N[C@@H](Cc4cccc5ccccc45)C(=O)N[C@@H](CCC(N)=O)C(N)=O)(C3)NC(=O)[C@H](CC(N)=O)NC(=O)[C@H](Cc3ccccc3)NC(=O)[C@H](C)NC(=O)[C@H](C)NC(=O)[C@H]([C@@H](C)O)NC(=O)[C@H](CC(N)=O)NC1=O)NC(=O)[C@H](CC(C)(C)C)NC(=O)[C@H](CC(=O)O)NC2=O` (stereo partly drawn) [I-1871, Ac-PL3-Asp-Npg-B5-Asn-Thr-Ala-Ala-Phe-Asn-PyrS2-3Thi-1NapA-Gln-NH2], for which the IC50 came out at 1.77 µM. On to `CC(=O)N1CCC[C@]12CC=CCCCC1(CCCC=CCCCOC(=O)N3CC[C@@](C(=O)N[C@@H](Cc4ccsc4)C(=O)N[C@@H](Cc4ccc5ccccc5c4)C(=O)N[C@@H](CCC(N)=O)C(N)=O)(C3)NC(=O)[C@H](CC(N)=O)NC(=O)[C@H](Cc3ccccc3)NC(=O)[C@H](C)NC(=O)[C@H](C)NC(=O)[C@H]([C@@H](C)O)NC(=O)[C@H](CC(N)=O)NC1=O)NC(=O)[C@H](CC(C)(C)C)NC(=O)[C@H](CC(=O)O)NC2=O` (stereo partly drawn) [I-1873, Ac-PL3-Asp-Npg-B5-Asn-Thr-Ala-Ala-Phe-Asn-PyrS2-3Thi-2NapA-Gln-NH2], for which the IC50 stood at 1.48 µM. On to `CC(=O)N1CCC[C@]12CC=CCCCC1(CCCC=CCCCOC(=O)N3CC[C@@](C(=O)N[C@@H](Cc4ccsc4)C(=O)N[C@@H](Cc4c[nH]c5ccccc45)C(=O)N[C@@H](CCC(N)=O)C(N)=O)(C3)NC(=O)[C@H](CC(N)=O)NC(=O)[C@H](Cc3ccccc3)NC(=O)[C@H](C)NC(=O)[C@H](C)NC(=O)[C@H]([C@@H](C)O)NC(=O)[C@H](CC(N)=O)NC1=O)NC(=O)[C@H](CC(C)(C)C)NC(=O)[C@H](CC(=O)O)NC2=O` (stereo partly drawn) [I-1876, Ac-PL3-Asp-Npg-B5-Asn-Thr-Ala-Ala-Phe-Asn-PyrS2-3Thi-Trp-Gln-NH2], for which the IC50 stood at 1.34 µM. On to `CC(=O)N1CCC[C@]12CC=CCCCC1(CCCC=CCCCOC(=O)N3CC[C@@](C(=O)N[C@@H](Cc4ccsc4)C(=O)N[C@@H](Cc4c[nH]c5ccccc45)C(=O)N[C@@H](CCC(N)=O)C(N)=O)(C3)NC(=O)[C@H](CC(N)=O)NC(=O)[C@H](Cc3ccccc3)NC(=O)[C@H](C)NC(=O)[C@H](C)NC(=O)[C@H]([C@@H](C)O)NC(=O)[C@H](CC(N)=O)NC1=O)NC(=O)[C@H](CC(C)(C)C)NC(=O)[C@H](CC(=O)O)NC2=O` (stereo partly drawn) [I-1877, Ac-PL3-Asp-Npg-B5-Asn-Thr-Ala-Ala-Phe-Asn-PyrS2-3Thi-Trp-Gln-NH2], for which the IC50 is 1.52 µM.
